In patent US20090082408A1, “NOVEL HETEROCYCLIC DERIVATIVES” (priority 2005, published 2009):
Counter-ions that a name gives are not always drawn.

How the values were obtained:
3T3-L1 cells = assay: Glucose uptake assay using 3T3-L1 cells; type: cell-based; details: 14C deoxyglucose uptake in differentiated 3T3-L1 adipocytes; 1 μM for 72 hours; relative to reference compound BLX-1002
Description: Glucose Uptake Assay Using 3T3-L1 Cells
3T3-L1 cells were differentiated by the addition of differentiation cocktail (72 μg/ml insulin, 0.5 mM IBMX, 400 ng/ml Dexamethasone) for 4 days and were later fed with media without the differentation cocktail for 7-8 days. After differentiation the cells were incubated with the either the reference compound BLX-1002 or with the compounds listed in the table 1 at 1 μM concentrations for 72 hours, and the glucose uptake assay was carried out for 10 minutes by the addition of KRP buffer supplemented with 2.5 μCi/ml ^14C deoxy glucose. Stimulation Index is defined as the amount of ^14C Deoxyglucose uptake induced by 1 μM of BLX-1002 incubated for 72 hours in an assay condition as per the protocol described above with differentiated 3T3-L1 adipocytes. The values for compounds mentioned in table-1 are with reference to the stimulation index of reference compound BLX-1002.

[1] = test system: streptozotocin induced diabetic mice; assay: Antidiabetic activity in streptozotocin induced diabetic mice; type: in vivo; details: 50 mg/kg body weight, oral route, 7 days, female Swiss albino mice, fasted 6 hours
Description: Antidiabetic Activity in Streptozotocin Induced Diabetic Mice
Female Swiss albino mice, at the age of 10 weeks were used in the study. Diabetes was induced in the animals by injecting streptozotocin by i.p. route at a dose of 200 mg/kg body weight. 48 hours after streptozotocin administration, the animals were kept fasting for 6 hours. Subsequently blood was collected, plasma separated and the glucose was estimated. Animals showing greater than 200 mg/dl glucose levels were considered as diabetic and these animals were randomly distributed into various groups. The example 2 listed in the table 2 was administered at a dose of 50-mg/kg body weight by oral route for 7 days. Later the animals were fasted for 6 hours, the blood was collected and the plasma was separated. Biochemical estimations like glucose, cholesterol and triglycerides were carried out using the plasma. The effect of the compounds mentioned in the table was expressed in terms of percentage reduction in biochemical values as compared to the control group.

SMILES	Stimulation Index (3T3-L1 cells)	% Reduction Glucose ([1]; plasma glucose vs control group) [%]	% Reduction Triglyceride ([1]; plasma triglyceride vs control group) [%]
COC(=O)C(N)Cc1ccc(Oc2ccc(Nc3ccccn3)cc2)cc1 (stereo not drawn) [Example 1, Methyl-2-amino-3-{4-[4-(pyridin-2-ylamino)phenoxy]phenyl}propionate dihydrochloride]	1.10		
COC(=O)[C@@H](N)Cc1ccc(Oc2ccc(Nc3ccccn3)cc2)cc1 [Example 2, Methyl (2S)-2-amino-3-{4-[4-(pyridin-2-ylamino)phenoxy]phenyl}propanoate dihydrochloride]		52.4	49.6
